Test results: patent publication US20070155693A1, “Inhibitor of cancer bone metastasis” (ORIENT CANCER THERAPY CO., LTD., priority 2004, published 2007)

What was measured:
[1] = system: non-small cell lung cancer and prostate cancer; conditions: clinical data; cited from earlier work
[2] = system: bone metastasis; test: Clinical cases: bone metastasis marker 1CTP; assay type: in vivo, human; conditions: Example 1, prostate cancer and ischial bone metastasis; Iressa added to NITC
From the text: Effects of inhibiting bone metastasis were confirmed by the variation of 1CTP which is a bone metastasis marker. 1CTP has been practically used as a specific marker for bone resorption and there is, for example, 1CTP kit supplied by Orion (Clin. Chem. 39: 635-640, 1993). The kit uses a decalcified human thigh bone, which is degraded and purified in vitro by a purified bacterial collagenase, as an antigen (1CTP), to immunize a rabbit to produce an antibody, and the antigen is labeled with ^125I to make competitive radioimmunoassay (RIA). Its measuring sensitivity is 0.5 ng/ml or less and the measurement is possible to at least 50 ng/ml. Further, the mean value in blood level of 287 cases from 25-year old to 72-year old is 3.00±1.12 ng/ml (average±S.D.). 1CTP in blood has shown abnormal values in various metabolic bone diseases such as bone metastasis and hyperparathyroidism by now, and further has also been recognized to correlate with therapeutic process. The kit to measure 1CTP is a known clinical diagnosis one, and there is a RIA kit, pyridinoline 1CTP “Chugai” manufactured by Chugai Diagnostics Science Co., Ltd. Specifically, it is a radioimmunoassay reagent using ^125I as a label. However, other well known reagents such as enzyme immunoassay reagent using an enzyme labeling and fluorescence immunoassay reagent using a fluorescent substance can of course be applied. […]

[3] = system: prostate cancer; test: Clinical cases: prostate cancer markers PSA and PAP; assay type: in vivo, human; conditions: Example 1, prostate cancer and ischial bone metastasis; Iressa added to NITC
Procedure: Abbreviations expressed were based on each general expression way.
(§1) A prostate cancer patient having been diagnosed as ischial bone metastasis received the hormone therapy of Casodex and Leuplin. NITC was started on Jun. 11, 200X. […] On Sep. 18, 200X, severe low back pain and left hip joint and hip (ischial bone metastasis) pains were appeared, so morphine (MS Contin 40 mg/day) was used. From Oct. 29, 200X, Iressa 1T (250 mg/day) was started to use. Two months after the administration of Iressa, as the pains in low back, left hip joint and hip were alleviated, the administration of MS Contin decreased to 20 mg/day.
(§2) From Jul. […] From Aug. 17, 200X, Iressa 1T (250 mg/day) was initiated. […] Currently, Iressa is only temporarily and orally administered as a painkiller, when pain appears.

[4] = system: bone metastasis pain; test: Clinical cases: pain from bone metastasis; assay type: in vivo, human; conditions: for generalized bone pain: morphine 240 mg/day, Leuplin hormone therapy, Iressa 250 mg/day
Procedure: as §1, §2

Structure (SMILES): COc1cc2ncnc(Nc3ccc(F)c(Cl)c3)c2cc1OCCCN1CCOCC1 [Iressa]
- CR (complete remission) [1]: almost nothing
- 1CTP (bone metastasis marker) [2]: the increase of 1CTP also terminated, showing a tendency to decrease
- PSA and PAP (prostate cancer markers) [3]: kept decreasing significantly
- pains in low back, left hip joint and hip ([4]; Example 1, two months after the administration of Iressa 250 mg/day): alleviated
- effect as painkiller compared with morphine ([4]; Example 2): stronger effect than morphine
- pains after dose reduction ([4]; Example 2, Iressa decreased to 250 mg/alternate day and 250 mg/three days): pains disappeared
- generalized bone pain ([4]; Example 2): alleviated significantly

Structure (SMILES): CCNC(=O)[C@@H]1CCCN1C(=O)[C@H](CCCNC(=N)N)NC(=O)[C@H](CC(C)C)NC(=O)[C@@H](CC(C)C)NC(=O)[C@H](Cc1ccc(O)cc1)NC(=O)[C@H](CO)NC(=O)[C@H](Cc1c[nH]c2ccccc12)NC(=O)[C@H](Cc1c[nH]cn1)NC(=O)[C@@H]1CCC(=O)N1 [Leuplin]
- generalized bone pain ([4]; Example 2): the pain was not weakened

Structure (SMILES): CN1CC[C@]23c4c5ccc(O)c4O[C@H]2[C@@H](O)C=C[C@H]3[C@H]1C5 [morphine]
- generalized bone pain ([4]; Example 2): could not alleviate the pain
